Assay results published in US8097656B2, “Nitrogenated trans-stilbene analogs, method for the obtention and medical applications thereof” (Dominion Pharmakine S.L, priority 2005, dated 2012).
“Also recorded” adds a separate entry of the source.

Assays:
MB16 cells [1] = assay: MB16 cell adhesion to immobilized VCAM-1 substrates (H2O2-treated); format: cell-based, murine; details: 2.5 μM preincubation; 10 μM H2O2
Protocol: MB16 and MA375 cell adhesion to immobilized VCAM-1 substrates. The MB16 and MA375 cell adhesion tests were conducted on immobilized VCAM-1 substrates (2 μg/ml of recombinant human VCAM-1, R&D Systems, Minneapolis, Minn.) on 96-well plates. To avoid non-specific attachment to the plastic, 0.5% BSA dissolved in PBS was added to the wells for 2 hours at ambient temperature prior to conducting the adhesion test. The melanoma cells were preincubated with 2.5 μM of the compounds to be tested (azaresveratrol, see Table 2; JE1:2, JE2:1 and JE2:2 see FIG. 2; JEM2:2-01 and JEM2:1-02 see FIG. 7; YEF02, YEF03, YEF07, YEF05B, YEF07B and YEF05H. see FIG. 9) for 30 minutes, to which 10 μM of hydrogen peroxide or 10 ng/ml of IL-18 were added, respectively for a further 24 hours. Afterward, the cells were washed and marked with the BCECF-AM fluorescent probe (carboxyfluorescein, 2′,7′-bis-(2-carboxy-ethyl)-5-(6)carboxyfluorescein aminoxymethyl ester). Thirty minutes later, a washing process was performed to remove the excess fluorochromium, the number of viable cells being calculated by means of the trypan blue exclusion test and (5×10^4 cells/well) being added to the 96-well plate. The co-culture plates were incubator-incubated at 37° C. for 1 hours. The percentage of cellular adhesion was calculated by measuring the fluorescence emitted by the adhered cells (obtained after washing the plate) with regard to the fluorescence emitted by the total number of cells added. The results in the figures are given in values related to the adhesion percentages of the untreated melanoma cells.

PGE2 = assay: EIA of PGE2 in supernatant of VEGF-treated HSE cells (evidence of cyclooxygenase-2 activity); format: cell-based, mouse; details: 1, 2.5 and 10 μM; 10 ng/ml VEGF for 4 hours
Protocol: PGE2 determination in HSE cell supernatants (see FIG. 11). Primary cultured HSE cells were incubated in the presence or absence of increasing concentrations (1, 2.5 and 10 μM) of the compounds JE2:2, YEF07 and YEF05B for 30 minutes. In following, 10 ng/ml of recombinant murine VEGF or the same volume of saline solution was added, 4 hours after which supernatants were collected and the PGE2 concentration determined by enzymatic immunoassay (EIA) supplied by Amersham Biosciences (Uppsala, Sweden).

HSE cells [2] = assay: MB16 cell adhesion to HSE cells treated with MC-MB16; format: cell-based, mouse; details: 2.5 μM prior to MC-MB16
Description: (§1) Isolation of primary murine cultures of hepatic sinusoidal endothelial (HSE) cells. The hepatic sinusoidal cells were isolated from C57BL/6J mice (males, aged 6-8 weeks) supplied by IFFA Credo (L'Arbreole, France), followed by a purification and identification of the HSE cells following the protocol described by Vidal-Vanaclocha et al. (1993) [Vidal-Vanaclocha, F., Rocha, M., Asumendi, A. & Barbera-Guillem, E. Isolation and enrichment of two sublobular compartment-specific endothelial cell subpopulations from liver sinusoids. Hepatology, 1993, 18, 328-339]. Stable primary cultures of HSE cells were obtained after seeding the cells on a type I collagen substrate (Sigma Chemicals Co, St Louis, Mo.), and the cultures were maintained in DMEM-HCO^3−, penicillin (100 U/ml), streptomycin (100 μg/ml), supplemented with 10% fetal bovine serum at 37° C. with 5% CO2 in atmosphere at 98% humidity.
MB16 cell adhesion to the monolayer of HSE cells in culture. The endothelial cells were isolated 24 hours prior to the adhesion test and were seeded on 24-well plate, maintaining them a minimum of 4 hours in serum-free medium before incubating them with DMEM in the presence or not of MC-MB16 for 8 hours. The synthesized compounds (JE2:2 see FIG. 6; JEM2:2-01 and JEM2:1-02 see FIG. 8A; YEF02, YEF03, YEF07, YEF05B, YEF07B and YEF05H see FIG. 10) were added to a 2.5 μM concentration prior to the MC-MB16. On the other hand, the MB16 cells were marked with 40 μg/ml from the fluorescent probe BCECF-AM (carboxyfluorescein, 2′,7′-bis-(2-carboxy-ethyl)-5-(6)carboxyfluorescein aminoxymethyl ester) supplied by Molecular Probes Inc. (Oregon, USA). Afterward, a washing process was performed with DMEM-HCO3−—to remove the excess fluorochromium, the number of viable cells being calculated by means of the trypan blue exclusion test and resuspended to a concentration of 2×10^5 cells/ml. Lastly, 1 ml of the MB16 cell suspension was added to each well on the primary HSE cell culture plate. The co-culture plates were incubator-incubated at 37° C. for 8 minutes. The percentage of cellular adhesion was calculated by means of the a fluorescence measurement system described by Vidal-Vanaclocha et al. (1994) [Vidal-Vanaclocha, F., Amézaga, C., Asumendi, A., Kaplanski, G. & Dinarello, C. A. Interleukin-1 receptor blockade reduces the number and size of murine B16 melanoma hepatic metastases. Cancer Research, 1994, 54, 2667-2672]. In the experiments with IL-18, the MB16 cells were incubated with 10 ng/ml of IL-18 for 4 hours prior to being marked with BCECF-AM and were adhered to the HSE cell plate. The results in the figures are given as values related to the adhesion percentages of the untreated HSE cells.

HSE cells [3] = assay: Hydrogen peroxide production from primary cultured HSE cells (DCFH-DA probe); format: cell-based, mouse; details: 2.5 μM
Description: as §1
(§2) Determination of hydrogen peroxide production from HSE and MB16 cells. Primary cultures of HSE cells were treated with 10 μg/ml of the DCFH-DA fluorescent probe for 30 minutes at 37° C. and were washed to eliminate the excess fluorochromium. Afterward, fresh culture medium was added thereto in the presence or absence of 2.5 μM of the compounds JE1:2, JE2:1 or JE2:2 and the production of H202 over the course of time was determined (see FIG. 5). The hydrogen peroxide produced by the cells oxidizes the probe, converting it into a fluorescent molecule. Thus, the cell fluorescence produced by the accumulation of DCF made it possible to detect the intracellular production of hydrogen peroxide. In each cell well, it was possible to determine the relative fluorescence value (arbitrary units of fluorescence brightness) in relation to the quantity of hydrogen peroxide produced at different incubation times. In the experiments with MB16 cells, once the cells had been marked with the DCFH-DA probe, they were incubated for 300 minutes with 2.5 μM of the azaresveratrol or JE2:2 compounds, 10 ng/ml of IL-18 (FIG. 4) then having been added.

MB16 cells [4] = assay: In vitro proliferation of MB16 cells treated with recombinant IL-18; format: cell-based, murine; details: 2.5 μM pretreatment; 10 ng/ml IL-18; 48 h
Protocol: In vitro Melanoma cell proliferation test. The MB16 or MA375 cells are seeded (2500 cells/well/200 μl) in DMEM medium (Dulbecco's modified Eagle's medium) with 10% fetal bovine serum (FBS). Once adhered, they were washed to remove the FBS and fresh medium was added in the presence or absence of 2.5 μM of the compounds to be tested. In the experiments with MA375, the compound azaresveratrol (see Table 4) was used, and in the experiments with MB16 cells, the compounds azaresveratrol, JE1:2, JE2:1 or JE2:2 (see FIG. 3) were used. Thirty (30) minutes later, 10 ng/ml of IL-18 or HSC-conditioned media (murines in the case of B16 and human ones in the case of A375) were added to some wells, and the plates were incubated for 48 hours at 37° C. with 5% CO2 Upon completion of the incubation period, the cells were fixed with […] for 1 hours, were washed and were allowed to dry in the incubator at 50° C. for 30 minutes. In following, 100 μl/well of sulforhodamine 101 (0.4% p/v) was added and they were incubated at room temperature in the dark for 30 minutes. After washing, 200 μl/well of Tris base 10 mM pH 10.5 was added and the fluorescence was measured by means of a 530 nm, 620 nm emission excitation filter plate fluorescence reader. The number of cells was calculated by extrapolating said fluorescence data on a standard straight line previously obtained based on the fluorescence emitted in an increasing number of cells.

TNF-alpha = assay: ELISA of TNF-alpha in supernatant of MC-MB16-treated HSE cells; format: cell-based, mouse; details: 2.5 μM for 30 minutes before MC-MB16; 8 hours
Protocol: ELISA determination of the TNF-alpha concentration in the supernatant from MC-MB16-treated HSE cells. Primary cultured HSE cells were incubated in the presence or absence of 2.5 μM of the synthesized compounds (JEM2:2-01 and JEM2:1-02 see FIG. 8B) for 30 minutes, after which MB16-conditioned media were added. Eight (8) hours later, the supernatant from cultured endothelial cells were collected, filtered through 0.22 μm membranes and the concentration of TNF-alpha was then assayed using the ELISA test (R&D Systems).

MB16 cells [5] = assay: MB16 hepatic metastasis test after intrasplenic injection; format: in vivo, C57BL/6J mice; details: JE2:2 intraperitoneal 2.5 mg/kg, 1 hour prior and days 2, 3, 4, 8, 9, 10, 11; day 12; vs PBS; P<0.01
[6] = Water solubility (statement); format: physicochemical
MB16 cells [7] = assay: Hydrogen peroxide production from MB16 cells (DCFH-DA probe); format: cell-based, murine
Protocol: as §2

| Structure (SMILES) | Increase in H2O2-treated MB16 cell adhesion to immobilized VCAM-1 (in words) (MB16 cells [1]) | Increase in endothelial secretion of PGE2 after VEGF (in words) (PGE2) | Increase in adhesion of MB16 cells to HSE activated by MC-MB16 / proadhesive response of HSE (in words) (HSE cells [2]) | Endothelial (HSE) production of H2O2 (in words) (HSE cells [3]) | Increase in the number of MB16 cells by IL-18 (proliferation, in words) (MB16 cells [4]) | further results |
| --- | --- | --- | --- | --- | --- | --- |
| COc1cc(OC)cc(-c2cc3c(OC)cc(OC)cc3[nH]2)c1 [YEF07, 4,6-Dimethoxy-2-(3,5-dimethoxyphenyl)-1H-indole] | significantly (P<0.01) inhibited | significantly inhibited | significantly (P<0.01) reduced |  |  |  |
| COC(=O)c1[nH]c(-c2cc(O)cc(O)c2)cc1-c1ccc(O)cc1 [JE2:1, 5-(3,5-Dihydroxyphenyl)-3-(4-hydroxyphenyl)-1H-pyrrole-2-methyl carboxylate] | significantly (P<0.01) inhibits |  |  | inhibitory effect | reduced said increase |  |
| COc1cc(OC)cc(-c2cc3c(OC)cc(OC)cc3n2C(=O)OC(C)(C)C)c1 [YEF05B, 4,6-Dimethoxy-2-(3,5-dimethoxyphenyl)-1H-indole-1-tert-butyl carboxylate] | significantly (P<0.01) inhibited | significantly inhibited | significantly (P<0.01) reduced |  |  |  |
| COc1ccc(OC)c(-c2cc3c(OC)cc(OC)cc3n2C(=O)OC(C)(C)C)c1 [YEF07B, 4,6-Dimethoxy-2-(2,5-dimethoxyphenyl)-1H-indole-1-tert-butyl carboxylate] | significantly (P<0.01) inhibited |  | significantly (P<0.01) reduced |  |  |  |
| COC(=O)c1[nH]c(-c2cc(OC)cc(OC)c2)cc1-c1cc(OC)cc(OC)c1 [JEM2:2-01, 3,5-bis(3,5-Dimethoxyphenyl)-1H-pyrrole-2-methyl carboxylate] | completely abrogated |  | significantly (P<0.01) reduced; also recorded: greater inhibition |  |  | Endothelial production of TNF-alpha induced by MC-MB16 (in words) (TNF-alpha): inhibits |
| Oc1ccc(O)c(-c2cc3c(O)cc(O)cc3[nH]2)c1 [YEF05H, 2-(2,5-Dihydroxyphenyl)-1H-indole-4,6-diol] | significantly (P<0.01) inhibited |  | significantly (P<0.01) reduced |  |  |  |
| COC(=O)c1[nH]c(-c2cc(O)cc(O)c2)cc1-c1cc(O)cc(O)c1 [JE2:2, 3,5-bis(3,5-Dihydroxyphenyl)-1H-pyrrole-2-methyl carboxylate] | significantly (P<0.01) inhibits; also recorded: greatest inhibitory effect | significantly inhibited; also recorded: dose-response | significantly (P<0.01) reduced | inhibited | reduced said increase; also recorded: most highly effective | Reduction of the mean density of hepatic metastasis (MB16 cells [5]): 87%; Reduction of the volume occupied by metastatic tissue (MB16 cells [5]): 90%; Water solubility (in words) [6]: highly water-soluble; Increase of H2O2 production of MB16 cells in response to IL-18 (in words) (MB16 cells [7]; 2.5 μM prior to IL-18): completely abrogated; H2O2 production of MB16 cells in basal conditions (in words) (MB16 cells [7]; 2.5 μM, no IL-18): inhibited |
| COC(=O)c1[nH]c(-c2ccc(O)cc2)cc1-c1cc(O)cc(O)c1 [JE1:2, 3-(3,5-Dihydroxyphenyl)-5-(4-hydroxyphenyl)-1H-pyrrole-2-methyl carboxylate] | significantly (P<0.01) inhibits |  |  | inhibitory effect | reduced said increase |  |
